Converted amounts (≈) assume the structure as drawn.
How the values were obtained:
[1] = target: T1, Human neutrophil elastase (Homo sapiens, UniProt P08246); test: Human Neutrophil Elastase Assay; format: biochemical; conditions: substrate MeOSuc-Ala-Ala-Pro-Val-AMC 250 μM, pH 7.5, room temperature
T1 construct: purchased Calbiochem 324681
T1 sequence (P08246 30-247 limits assumed): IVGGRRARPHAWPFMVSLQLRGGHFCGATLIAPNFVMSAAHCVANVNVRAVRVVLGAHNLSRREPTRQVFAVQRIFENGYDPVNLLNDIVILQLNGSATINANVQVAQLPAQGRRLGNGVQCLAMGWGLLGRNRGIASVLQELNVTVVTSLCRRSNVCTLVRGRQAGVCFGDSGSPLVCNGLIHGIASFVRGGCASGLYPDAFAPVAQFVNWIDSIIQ
Description: Human Neutrophil Elastase Assay

Aqueous solubility = format: physicochemical; conditions: McIlvaine buffer pH 6.8 containing 2.5% DMSO, kinetic from dmso stock, McIlvaine buffer pH 6.8, 2.5% DMSO, 24 h shaking
Protocol: Assay for Determination of Aqueous Solubility
Starting from a 10 min DMSO stock solution, aliquots are diluted with acetonitrile/water (1/1) and McIlvaine buffer pH 6.8, respectively. After 24 h of shaking, the solutions or suspensions are filtered and analyzed by LC-UV. The amount dissolved in buffer is compared to the amount dissolved in the acetonitrile/water (1/1) solution. Solubility is measured from 0.001 to 0.125 mg/ml at a DMSO concentration of 2.5%. If more than 90% of the compound is dissolved in buffer, the value is marked with “>”.

[2] = Drug transport across human Caco-2 cells; format: in vitro ADME; conditions: pH 7.2, 37° C.; for Papp A→B at 10 µM: apical-to-basal, read-out: PEAB; for Papp B→A at 10 µM: basal-to-apical, read-out: PEBA
Description: Assay for Determination of Drug Transport Across Human Caco-2 Cells
The assay provides information on the potential of a compound to pass the cell membrane, on the extent of oral absorption as well as on whether the compound is actively transported by uptake and/or efflux transporters. For the measurement of permeability across polarized, confluent human cancer colon carcinoma cells 2 (Caco-2) cell monolayers grown on permeable filter supports are used as the in vitro absorption model.
Apparent permeability coefficients (PE) of the compounds across the Caco-2 monolayers are measured (pH 7.2, 37° C.) in apical-to-basal (AB) (absorptive) and basal-to-apical (BA) (secretory) transport direction. AB permeability (PEAB) represents drug absorption from the intestine into the blood and BA permeability (PEBA) drug secretion from the blood back into the intestine via both passive permeability as well as active transport mechanisms mediated by efflux and uptake transporters that are expressed on the Caco-2 cells. The compounds are assigned to permeability/absorption classes by comparison of the AB permeabilities with the AB permeabilities of reference compounds with known in vitro permeability and oral absorption in the human. Identical or similar permeabilities in both transport directions indicate passive permeation, vectorial permeability points to additional active transport mechanisms. […] Active transport is concentration-dependently saturable.
Caco-2 cells (1-2*10^5 cells/cm^2 area) are seeded on filter inserts (Costar transwell polycarbonate or PET filters, 0.4 μm pore size) and cultured (DMEM) for 10 to 25 days. Compounds are dissolved in appropriate solvent (like DMSO, 1-20 min stock solutions). Stock solutions are diluted with HTP-4 buffer (128.13 min NaCl, 5.36 min KCl, 1 mM MgSO4, 1.8 min CaCl2, 4.17 min NaHCO3, 1.19 min Na2HPO4×7H2O, 0.41 mM NaH2PO4×H2O, 15 min HEPES, 20 min glucose, pH 7.2) to prepare the transport solutions (typically 10 μM compound, final DMSO<=0.5%). The transport solution (TL) is applied to the apical or basolateral donor side for measuring A-B or B-A permeability (3 filter replicates), respectively. The receiver side contains HTP-4 buffer supplemented with 2% BSA. Samples are collected at the start and end of experiment from the donor and at various time intervals for up to 2 hours also from the receiver side for concentration measurement by LC-MS/MS or scintillation counting. Sampled receiver volumes are replaced with fresh receiver solution.

[3] = Metabolic stability with human liver microsomes; format: in vitro ADME; conditions: pooled human liver microsomes, pH 7.6; human liver microsomes 1 mg/ml, 1 μM compound, 37° C., NADPH; read-out: t1/2 INVITRO
[4] = target: T2, neutrophil elastase in human plasma (Homo sapiens, UniProt P08246); test: Neutrophil elastase inhibitory activity in human plasma; format: biochemical; conditions: zymosan-stimulated human plasma, substrate MeOSuc-Ala-Ala-Pro-Val-AMC 250 μM
T2 construct: The stimulated blood is centrifuged to generate the neutrophil elastase enriched plasma; from tissue; host or cells: plasma from zymosan-stimulated citrated whole blood of healthy human donors
T2 sequence (P08246 30-267): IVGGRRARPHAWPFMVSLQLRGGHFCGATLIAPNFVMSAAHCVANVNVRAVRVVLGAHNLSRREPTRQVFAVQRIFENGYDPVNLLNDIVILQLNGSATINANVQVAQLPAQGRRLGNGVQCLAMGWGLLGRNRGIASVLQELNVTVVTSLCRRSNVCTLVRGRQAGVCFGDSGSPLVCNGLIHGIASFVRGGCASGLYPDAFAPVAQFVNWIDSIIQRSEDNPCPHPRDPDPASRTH
Protocol: Assay for the Determination of Neutrophil Elastase Inhibitory Activity in Human Plasma
Citrated blood from human healthy donors is mixed with zymosan suspension and incubated at room temperature. This leads to the stimulation of neutrophils and the release of neutrophil elastase into the plasma. The stimulated blood is centrifuged to generate the neutrophil elastase enriched plasma.
• A single 45 ml blood sample is taken into a 50 ml tube containing citrate (3.13%, 5 mL) and the tube is gently inverted 4 times. • Immediately after blood sampling, zymosan working solution (5 mL) is added. • After the addition of zymosan working solution, the tubes are capped, mixed gently and incubated at 22° C. for 15 min on a shaker at 20 rpm. • Make 10 ml aliquots after the incubation time. • Centrifuge the 15 ml tubes at 800 g for 15 min at 4° C. in a Jouan centrifuge. • Harvest the plasma and make 1-5 ml aliquots. • Store the plasma at −80° C.
A dose response curve is generated to calculate the EC50 of the inhibitor. The analysis of the data is performed by the calculation of the percentage of fluorescence in the presence of the test compound compared to the fluorescence of the vehicle control after subtracting the background fluorescence: An inhibitor of the neutrophil elastase enzyme will give values between 100% control (no inhibition) and 0% control (complete inhibition).

IC50 [1] [nM] | solubility at 24 h (Aqueous solubility) [µg/mL] | Papp A→B at 10 µM [2] [×10⁻⁶ cm/s] | Papp B→A at 10 µM [2] [×10⁻⁶ cm/s] | half-life at 1 μM [3] [h] | EC50 [4] [nM] | Structure (SMILES)
< 1 | 72 (≈ 135 µM) | 3.9 | 68 | > 2.17 | 1 | CS(=O)(=O)c1cc(C#N)ccc1C1C2=C(CCCC2=O)N(c2cccc(C(F)(F)F)c2)C(=O)N1CCO (stereo not drawn) [Example 6, 4-[3-(2-Hydroxy-ethyl)-2,5-dioxo-1-(3-trifluoromethyl-phenyl)-1,2,3,4,5,6,7,8-octahydro-quinazolin-4-yl]-3-methanesulfonyl-benzonitrile]
< 1 | 65 (≈ 133 µM) | 4.1 | 58 | 0.967 | < 1 | CN1C(=O)N(c2cccc(C(F)(F)F)c2)C2=C(C(=O)CCC2)C1c1ccc(C#N)cc1[S+](C)[O-] (single isomer, unassigned) [Example 2.1A, 3-Methanesulfinyl-4-[3-methyl-2,5-dioxo-1-(3-trifluoromethyl-phenyl)-1,2,3,4,5,6,7,8-octahydro-quinazolin-4-yl]-benzonitrile]
1.1 | 62 (≈ 116 µM) | 10 | 120 | 2.17 | 2 | CN1C(=O)N(c2cccc(C(F)(F)F)c2)C2=C(C(=O)CCC2)C1c1ccc(C#N)cc1S(=O)(=O)CCO (stereo not drawn) [Example 4.3]

— patent US9440930B2, “Substituted bicyclic dihydropyrimidinones and their use as inhibitors of neutrophil elastase activity” (Boehringer Ingelheim International GmbH, priority 2014, dated 2016)
